# Values of other authors, collected in patent publication US12036313B2, “Personal lubricants comprising lambda-carrageenan” (LANVIRA, LLC, priority 2018, dated 2024).
# Tested on: HPV
# Settings: in vitro and in vivo
substance,measurement,value
lambda-carrageenan,Activity against HPV,active against HPV
